These results are taken from patent US10485800B2, “Mixed lineage kinase inhibitors for HIV/AIDS therapies” (UNIVERSITY OF ROCHESTER, priority 2012, dated 2019).

A value given as a limit tells only on which side of the number the result lay.

Sequence of MLK3 (Q16584 whole entry): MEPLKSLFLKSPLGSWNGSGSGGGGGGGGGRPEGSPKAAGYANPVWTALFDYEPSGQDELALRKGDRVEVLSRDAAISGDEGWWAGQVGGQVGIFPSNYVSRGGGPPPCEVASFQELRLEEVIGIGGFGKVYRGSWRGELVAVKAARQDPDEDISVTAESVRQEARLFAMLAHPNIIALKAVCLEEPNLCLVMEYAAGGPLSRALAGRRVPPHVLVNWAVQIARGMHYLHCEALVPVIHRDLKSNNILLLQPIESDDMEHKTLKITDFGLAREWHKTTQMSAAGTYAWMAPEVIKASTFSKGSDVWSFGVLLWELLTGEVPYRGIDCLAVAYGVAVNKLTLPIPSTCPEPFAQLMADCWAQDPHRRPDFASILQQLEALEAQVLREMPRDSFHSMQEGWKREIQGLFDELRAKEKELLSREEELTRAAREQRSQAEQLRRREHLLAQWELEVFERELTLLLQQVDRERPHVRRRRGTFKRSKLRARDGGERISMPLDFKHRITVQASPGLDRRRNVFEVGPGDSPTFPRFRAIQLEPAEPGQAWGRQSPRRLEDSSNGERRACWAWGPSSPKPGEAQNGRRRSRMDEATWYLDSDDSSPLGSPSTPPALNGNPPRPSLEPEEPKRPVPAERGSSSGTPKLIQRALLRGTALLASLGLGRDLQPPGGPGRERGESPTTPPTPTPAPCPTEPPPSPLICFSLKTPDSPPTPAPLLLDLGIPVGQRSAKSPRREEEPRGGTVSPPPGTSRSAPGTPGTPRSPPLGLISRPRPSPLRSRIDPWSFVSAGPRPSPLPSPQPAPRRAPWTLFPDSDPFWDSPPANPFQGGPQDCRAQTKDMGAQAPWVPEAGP

Test system in the first data set: not listed separately
Briefly: Standard murine pharmacokinetic model (plasma and brain AUC). The format is in vivo. The following applies: CL57 BL/6 mice, single IV injection 10 mg/kg, brain homogenate. How it is done: Several compounds disclosed herein were evaluated in a standard murine pharmacokinetic model. […] Three mice in each group were used for blood and brain collection at each time point. […] The brain of each animal was collected after the final blood collection. The whole tissue was harvested, excised and rinsed by saline, dried by filter paper, and then placed into one tube per tissue per animal. All samples were stored at −20° C. until bioanalysis. Compound concentrations in plasma and brain homogenate were determined using a high performance liquid chromatography/mass spectrometry (HPLC/MS/MS) method (Agilent 1100 series HPLC, AB Inc. API4000 triple-quadrupole with an ESI interface and Analyst 1.4 software). Results in the form of area under the time-versus-concentration curve (AUC) are given below in Table 10.
As to `COc1cc(-c2cnc3[nH]cc(-c4ccc5[nH]ccc5c4)c3c2)cc(OC)c1OC` [Example 1, 3-(1H-indol-5-yl)-5-(3,4,5-trimethoxyphenyl)-1H-pyrrolo[2,3-b]pyridine], the “AUC Brain” value is given as “+ (+ indicates ≥500)”.
In the case of `Nc1ccc(-c2cnc3[nH]cc(-c4ccc5[nH]ccc5c4)c3c2)cn1` [Example 4, 5-(3-(1H-indol-5-yl)-1H-pyrrolo[2,3-b]pyridin-5-yl)pyridin-2-amine], the “AUC Brain” value is listed as “− (− indicates <500)”.
On the same count and under the same terms, the result for `CN1CCN(Cc2ccc(-c3cnc4[nH]cc(-c5ccc6[nH]ccc6c5)c4c3)cc2)CC1` [Example 32, 3-(1H-indol-5-yl)-5-(4-((4-methylpiperazin-1-yl)methyl)phenyl)-1H-pyrrolo[2,3-b]pyridine] reads “+ (+ indicates ≥500)”.

The next data set concerns the target MLK3 (Homo sapiens (Human), UniProt Q16584). The experiment in a line: Radiometric filter plate MLK3 assay. The format is biochemical. The note with it: 2 μM cold ATP (Km), 1 μM inactive MKK7b, twenty minute incubation; read-out: MK3 IC50. As to the method: After a twenty minute incubation, the reactions were washed through filter plates and read on a scintillation counter. Results are shown in Table 9 below, in which +++ indicates ≤0.1 μM, ++ indicates >0.1 μM and ≤1 μM, and + indicates >1 μM.
For `Nc1ccc(-c2cnc3[nH]cc(-c4ccc5[nH]ccc5c4)c3c2)cn1` [Example 4, 5-(3-(1H-indol-5-yl)-1H-pyrrolo[2,3-b]pyridin-5-yl)pyridin-2-amine], the IC50 (commonly the concentration needed to halve the response being measured) is less than 100 nM.
Same read-out and setting: as for `COc1cc(-c2cc3c(-c4ccc(C(N)=O)cc4)c[nH]c3[n+]([O-])c2)cc(OC)c1OC` [Example 154, 4-[7-oxy-5-(3,4,5-trimethoxy-phenyl)-1H-pyrrolo[2,3-b]pyridin-3-yl]-benzamide], the figure is 100 to 1000 nM.
Still for that read-out and setting: as for `CN1CCN(Cc2cccc(-c3cnc4[nH]cc(-c5ccc(C(N)=O)cc5)c4c3)c2)CC1` [Example 156, 4-{5-[3-(4-methyl-piperazin-1-ylmethyl)-phenyl]-1H-pyrrolo[2,3-b]pyridin-3-yl}-benzamide], the figure is less than 100 nM; as for `CC(=O)N1CCN(Cc2ccc(-c3cnc4[nH]cc(-c5ccc(C(N)=O)cc5)c4c3)cc2)CC1` [Example 157, 4-{5-[4-(4-acetyl-piperazin-1-ylmethyl)-phenyl]-1H-pyrrolo[2,3-b]pyridin-3-yl}-benzamide], less than 100 nM; as for `CN1CCN(Cc2ccc(-c3cnc4[nH]cc(-c5ccc(C(N)=O)cc5)c4c3)cc2)CC1=O` [Example 158, 4-{5-[4-(4-methyl-3-oxo-piperazin-1-ylmethyl)-phenyl]-1H-pyrrolo[2,3-b]pyridin-3-yl}-benzamide], less than 100 nM.
Still for that read-out and setting: as for `COc1cc(-c2cnc3[nH]cc(-c4ccc(CNC(C)=O)cc4)c3c2)cc(OC)c1OC` [Example 159, N-{4-[5-(3,4,5-Trimethoxy-phenyl)-1H-pyrrolo[2,3-b]pyridin-3-yl]-benzyl}-acetamide], the figure is less than 100 nM; as for `CN1CCN(Cc2ccc(-c3c[nH]c4ncc(-c5ccc(C(N)=O)cc5)cc34)cc2)CC1` [Example 162, 4-{3-[4-(4-methyl-piperazin-1-ylmethyl)-phenyl]-1H-pyrrolo[2,3-b]pyridin-5-yl}-benzamide], less than 100 nM; as for `CN1CCN(Cc2ccc(-c3c[nH]c4ncc(-c5ccc6[nH]ccc6c5)cc34)cc2)CC1` [Example 163, 5-(1H-indol-5-yl)-3-[4-(4-methyl-piperazin-1-ylmethyl)-phenyl]-1H-pyrrolo[2,3-b]pyridine], greater than 1000 nM.
For the compound `CNC(=O)c1ccc(-c2c[nH]c3ncc(-c4ccc(CN5CCN(C)CC5)cc4)cc23)cc1` [Example 165, N-methyl-4-{5-[4-(4-methyl-piperazin-1-ylmethyl)-phenyl]-1H-pyrrolo[2,3-b]pyridin-3-yl}-benzamide], the IC50 is less than 100 nM.
The same measure, in the same setting: as for `CN1CCN(Cc2ccc(-c3cnc4[nH]cc(-c5ccc(F)cc5)c4c3)cc2)CC1` [Example 169], the figure is greater than 1000 nM; as for `CN1CCN(Cc2ccc(-c3cnc4[nH]cc(-c5ccc(C(F)(F)F)cc5)c4c3)cc2)CC1` [Example 170], greater than 1000 nM; as for `CN1CCN(Cc2ccc(-c3cnc4[nH]cc(-c5ccc6nccc(O)c6c5)c4c3)cc2)CC1` [Example 177], less than 100 nM.
For `CN1CCN(Cc2ccc(-c3cnc4[nH]cc(-c5ccc6ncccc6c5)c4c3)cc2)CC1` [Example 180], the concentration for half-maximal inhibition (IC50) was less than 100 nM.
Still for that read-out and setting: the result for `c1cc2cc(-c3c[nH]c4ncc(-c5ccc(CN6CCOCC6)cc5)cc34)ccc2[nH]1` [Example 184, 4-(4-(3-(1H-indol-5-yl)-1H-pyrrolo[2,3-b]pyridin-5-yl)benzyl)morpholine] reads less than 100 nM.
Still for that read-out and setting: as for `CC(=O)N1CCN(Cc2ccc(-c3cnc4[nH]cc(-c5ccc6[nH]ccc6c5)c4c3)cc2)CC1C` (stereo not shown) [Example 188, 1-(4-(4-(3-(1H-indol-5-yl)-1H-pyrrolo[2,3-b]pyridin-5-yl)benzyl)-2-methylpiperazin-1-yl)ethanone], the figure is less than 100 nM; as for `CC1CN(Cc2ccc(-c3cnc4[nH]cc(-c5ccc6[nH]ccc6c5)c4c3)cc2)CCN1C` (stereo not shown) [Example 189, 5-(4-((3,4-dimethylpiperazin-1-yl)methyl)phenyl)-3-(1H-indol-5-yl)-1H-pyrrolo[2,3-b]pyridine], less than 100 nM; as for `CC(C)(C)CC(=O)N1CCN(Cc2ccc(-c3cnc4[nH]cc(-c5ccc6[nH]ccc6c5)c4c3)cc2)CC1` [Example 192], less than 100 nM.
With `CCOC(=O)N1CCN(Cc2ccc(-c3cnc4[nH]cc(-c5ccc6[nH]ccc6c5)c4c3)cc2)CC1` [Example 193], the IC50 is less than 100 nM.
Same read-out and setting: as for `COC(=O)N1CCN(Cc2ccc(-c3cnc4[nH]cc(-c5ccc6[nH]ccc6c5)c4c3)cc2)CC1` [Example 194], the figure is less than 100 nM; as for `CC(C)C(=O)N1CCN(Cc2ccc(-c3cnc4[nH]cc(-c5ccc6[nH]ccc6c5)c4c3)cc2)CC1` [Example 196], less than 100 nM; as for `CCC(=O)N1CCN(Cc2ccc(-c3cnc4[nH]cc(-c5ccc6[nH]ccc6c5)c4c3)cc2)CC1` [Example 197], less than 100 nM.
The same measure, in the same setting: the result for `COCC(=O)N1CCN(Cc2ccc(-c3cnc4[nH]cc(-c5ccc6[nH]ccc6c5)c4c3)cc2)CC1` [Example 198] reads less than 100 nM; that for `CCS(=O)(=O)N1CCN(Cc2ccc(-c3cnc4[nH]cc(-c5ccc6[nH]ccc6c5)c4c3)cc2)CC1` [Example 199], less than 100 nM; that for `CS(=O)(=O)N1CCN(Cc2ccc(-c3cnc4[nH]cc(-c5ccc6[nH]ccc6c5)c4c3)cc2)CC1` [Example 200], less than 100 nM.
Still for that read-out and setting: as for `O=C(CCO)N1CCN(Cc2ccc(-c3cnc4[nH]cc(-c5ccc6[nH]ccc6c5)c4c3)cc2)CC1` [Example 201], the figure is less than 100 nM; as for `COCCC(=O)N1CCN(Cc2ccc(-c3cnc4[nH]cc(-c5ccc6[nH]ccc6c5)c4c3)cc2)CC1` [Example 202], less than 100 nM; as for `O=C(CC1CC1)N1CCN(Cc2ccc(-c3cnc4[nH]cc(-c5ccc6[nH]ccc6c5)c4c3)cc2)CC1` [Example 203], less than 100 nM.
As to `CC(C)CC(=O)N1CCN(Cc2ccc(-c3cnc4[nH]cc(-c5ccc6[nH]ccc6c5)c4c3)cc2)CC1` [Example 204], the IC50 is less than 100 nM.
Same read-out and setting: the result for `O=C1CCC(C(=O)N2CCN(Cc3ccc(-c4cnc5[nH]cc(-c6ccc7[nH]ccc7c6)c5c4)cc3)CC2)N1` (stereo not shown) [Example 205] reads less than 100 nM.

The same data set, now with this note: read-out: MK3 IC50.
Turning to `CNC(=O)c1ccc(-c2c[nH]c3ncc(-c4cc(OC)c(OC)c(OC)c4)cc23)cc1` [Example 164, N-methyl-4-[5-(3,4,5-trimethoxy-phenyl)-1H-pyrrolo[2,3-b]pyridin-3-yl]-benzamide], the IC50 was greater than 1000 nM.
As for `c1cc2cc(-c3c[nH]c4ncc(-c5ccc(CN6CCNCC6)cc5)cc34)ccc2[nH]1` [Example 168, 3-(1H-indol-5-yl)-5-(4-(piperazin-1-ylmethyl)phenyl)-1H-pyrrolo[2,3-b]pyridine], the IC50 lay in the range of 100 to 1000 nM.
On the same count and under the same terms, the result for `COc1ccc(-c2c[nH]c3ncc(-c4ccc(CN5CCN(C)CC5)cc4)cc23)cc1` [Example 171] reads 100 to 1000 nM; that for `Cc1cc2cc(-c3c[nH]c4ncc(-c5ccc(CN6CCN(C)CC6)cc5)cc34)ccc2[nH]1` [Example 172], 100 to 1000 nM.
The same measure, in the same setting: the result for `CN1CCN(Cc2ccc(-c3cnc4[nH]cc(-c5ccc6[nH]ncc6c5)c4c3)cc2)CC1` [Example 173] reads 100 to 1000 nM; that for `CN1CCN(Cc2ccc(-c3cnc4[nH]cc(-c5ccc6c(c5)CC(=O)N6)c4c3)cc2)CC1` [Example 174], 100 to 1000 nM; that for `CN1CCN(Cc2ccc(-c3cnc4[nH]cc(-c5ccc6scnc6c5)c4c3)cc2)CC1` [Example 175], 100 to 1000 nM.
On the same count and under the same terms, the result for `Cc1c[nH]c2ccc(-c3c[nH]c4ncc(-c5ccc(CN6CCN(C)CC6)cc5)cc34)cc12` [Example 176] reads 100 to 1000 nM; that for `CN1CCN(Cc2ccc(-c3cnc4[nH]cc(-c5ccc6c(O)ccnc6c5)c4c3)cc2)CC1` [Example 178], 100 to 1000 nM.
As for `[2H]c1cc2cc(-c3c[nH]c4ncc(-c5ccc(CN6CCN(C)CC6)cc5)cc34)ccc2[nH]1` [Example 181], the IC50 is less than 100 nM.
On the same count and under the same terms, the result for `FC1(F)CCN(Cc2ccc(-c3cnc4[nH]cc(-c5ccc6[nH]ccc6c5)c4c3)cc2)CC1` [Example 185, 5-(4-((4,4-difluoropiperidin-1-yl)methyl)phenyl)-3-(1H-indol-5-yl)-1H-pyrrolo[2,3-b]pyridine] reads 100 to 1000 nM; that for `CC(C)(C)C(=O)N1CCN(Cc2ccc(-c3cnc4[nH]cc(-c5ccc6[nH]ccc6c5)c4c3)cc2)CC1` [Example 191], 100 to 1000 nM.
The same measure, in the same setting: the result for `FC(F)(F)CN1CCN(Cc2ccc(-c3cnc4[nH]cc(-c5ccc6[nH]ccc6c5)c4c3)cc2)CC1` [Example 207, 3-(1H-indol-5-yl)-5-(4-((4-(2,2,2-trifluoroethyl)piperazin-1-yl)methyl)phenyl)-1H-pyrrolo[2,3-b]pyridine] reads 100 to 1000 nM; that for `CN1CCN(Cc2ccc(-c3cnc4[nH]c(=O)n(-c5ccc6[nH]ccc6c5)c4n3)cc2)CC1` [Example 212, 1-(1H-Indol-5-yl)-6-[4-(4-methyl-piperazin-1-ylmethyl)-phenyl]-1,3-dihydro-imidazo[4,5-b]pyrazin-2-one], 100 to 1000 nM.
